Where two headings read alike, the source gives them in different places.
Experiments:
[1] = test system: isolated rat liver mitochondria; experiment: Oxygen consumption, Clark-type oxygen electrode; format: biochemical; conditions: for I-ADP, % of control (O2 consumption rate): glutamate/malate driven state 3 respiration; for I-ADP, % of control (O2 consumption rate) / I-sub, % of control (O2 consumption rate) / II-ADP, % of control (O2 consumption rate) / II-sub, % of control (O2 consumption rate): isolated rat liver mitochondria; for I-sub, % of control (O2 consumption rate): glutamate/malate driven state 4 respiration; for II-ADP, % of control (O2 consumption rate): succinate-driven state 3 respiration; for II-sub, % of control (O2 consumption rate): succinate-driven state 4 respiration
[2] = test system: Nrf2/ARE (ARE-bla HepG2 cells); experiment: ARE β-lactamase reporter gene assay; format: cell-based, human
[3] = test system: HepG2 cells; experiment: Oxygen consumption, Seahorse XF24 analyzer; format: cell-based, human
[4] = test system: HepG2 cells; experiment: ROS-Glo hydrogen peroxide (ROS) assay; format: cell-based, human; conditions: 2 h treatment; mean±SD of three experiments
[5] = test system: mitochondrial respiratory chain complex IV; format: biochemical, rat
[6] = test system: mitochondrial respiratory chain complex V; format: biochemical, rat
[7] = test system: mitochondrial respiratory chain complex I; format: biochemical, rat
[8] = test system: p53 (p53-bla HCT-116 cells); experiment: p53 β-lactamase reporter gene assay; format: cell-based, human; conditions: 16 h incubation; mean±SD of three experiments
[9] = test system: Caenorhabditis elegans strain PE255; experiment: In vivo C. elegans ATP status assay
[10] = test system: HeLa cells expressing YFP-Parkin; experiment: Parkin translocation assay; format: cell-based, human
[11] = test system: Caenorhabditis elegans (Bristol N2); experiment: C. elegans larval development and growth assay
[12] = test system: HepG2 cells
[13] = test system: HepG2 cells; experiment: Intracellular ATP content (cell viability) assay; format: cell-based, human; conditions: for IC50: 40 h treatment, mean±SD of three experiments
[14] = test system: mitochondrial respiratory chain complex III; format: biochemical, rat
[15] = test system: HepG2 cells; conditions: cited from earlier work
[16] = test system: rat primary hepatocytes; experiment: MMP assay in rat primary hepatocytes
[17] = test system: hNSC; experiment: MMP assay in human neural stem cells (hNSC); format: cell-based; conditions: mean±SD of three experiments
[18] = target: T1, mitochondrial respiratory chain complex II (Rattus norvegicus, UniProt P21913+Q641Z9+Q6PCT8+Q920L2); experiment: Respiratory chain complex II activity; format: biochemical; conditions: tested up to 100μM
T1 construct: Submitochondrial particles were prepared by subjecting the intact rat mitochondria, isolated as described above, to three successive freeze–thaw cycles; from tissue; host or cells: rat liver mitochondria (submitochondrial particles)
T1 sequence (Q920L2 35-656): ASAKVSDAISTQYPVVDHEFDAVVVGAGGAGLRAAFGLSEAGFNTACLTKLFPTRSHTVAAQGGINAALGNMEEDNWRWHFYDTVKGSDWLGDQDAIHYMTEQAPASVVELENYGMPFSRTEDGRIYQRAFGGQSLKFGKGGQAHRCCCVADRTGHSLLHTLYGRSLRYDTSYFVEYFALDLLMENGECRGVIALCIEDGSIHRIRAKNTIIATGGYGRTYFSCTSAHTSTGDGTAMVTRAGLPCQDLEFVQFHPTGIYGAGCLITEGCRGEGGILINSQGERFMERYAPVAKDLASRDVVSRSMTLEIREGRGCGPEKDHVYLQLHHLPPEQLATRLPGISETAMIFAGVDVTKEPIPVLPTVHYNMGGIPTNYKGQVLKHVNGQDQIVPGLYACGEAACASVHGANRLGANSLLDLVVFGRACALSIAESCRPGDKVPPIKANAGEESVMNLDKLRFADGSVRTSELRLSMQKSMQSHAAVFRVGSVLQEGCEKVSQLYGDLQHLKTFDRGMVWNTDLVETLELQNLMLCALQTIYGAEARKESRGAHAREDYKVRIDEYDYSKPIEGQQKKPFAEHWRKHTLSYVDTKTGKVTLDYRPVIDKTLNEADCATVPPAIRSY
T1 sequence (P21913 31-282): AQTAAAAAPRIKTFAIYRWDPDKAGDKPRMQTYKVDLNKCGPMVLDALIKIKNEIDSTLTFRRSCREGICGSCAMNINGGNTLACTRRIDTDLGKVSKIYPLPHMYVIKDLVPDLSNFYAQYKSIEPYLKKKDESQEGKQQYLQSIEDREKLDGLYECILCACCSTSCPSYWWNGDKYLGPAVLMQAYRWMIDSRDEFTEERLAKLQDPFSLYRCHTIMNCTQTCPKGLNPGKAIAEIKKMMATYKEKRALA
T1 sequence (Q641Z9 1-169): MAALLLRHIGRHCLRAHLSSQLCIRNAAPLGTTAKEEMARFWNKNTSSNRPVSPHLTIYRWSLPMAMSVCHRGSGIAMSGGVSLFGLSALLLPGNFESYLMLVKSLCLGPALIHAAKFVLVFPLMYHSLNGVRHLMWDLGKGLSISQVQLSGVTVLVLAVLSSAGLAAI
T1 sequence (Q6PCT8 57-159): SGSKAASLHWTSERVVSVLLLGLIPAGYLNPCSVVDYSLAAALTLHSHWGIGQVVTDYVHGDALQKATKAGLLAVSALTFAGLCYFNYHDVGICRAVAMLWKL

SMILES: CCN1C(=CC=Cc2ccc3ccccc3[n+]2CC)C=Cc2ccccc21.[Cl-] [Pinacyanol chloride]
- I-ADP, % of control (O2 consumption rate) ([1]; 0.8 µM): 88 (40.4) % of control
- I-sub, % of control (O2 consumption rate) ([1]; 0.8 µM): 113 (12.6) % of control
- II-ADP, % of control (O2 consumption rate) ([1]; 0.8 µM): 81 (60.9) % of control
- II-sub, % of control (O2 consumption rate) ([1]; 0.8 µM): 103 (21.3) % of control
- I-ADP, % of control (O2 consumption rate) ([1]; 4 µM): 57 (26.1) % of control
- I-sub, % of control (O2 consumption rate) ([1]; 4 µM): 108 (12.1) % of control
- II-ADP, % of control (O2 consumption rate) ([1]; 4 µM): 56 (42.3) % of control
- II-sub, % of control (O2 consumption rate) ([1]; 4 µM): 79 (16.2) % of control
- I-ADP, % of control (O2 consumption rate) ([1]; 20 µM): 31 (14.2) % of control
- I-sub, % of control (O2 consumption rate) ([1]; 20 µM): 69 (7.7) % of control
- II-ADP, % of control (O2 consumption rate) ([1]; 20 µM): 35 (26.2) % of control
- II-sub, % of control (O2 consumption rate) ([1]; 20 µM): 69 (14.3) % of control
- I-ADP, % of control (O2 consumption rate) ([1]; 100 µM): 21 (9.7) % of control
- I-sub, % of control (O2 consumption rate) ([1]; 100 µM): 76 (11.8) % of control
- II-ADP, % of control (O2 consumption rate) ([1]; 100 µM): 11 (7.6) % of control
- II-sub, % of control (O2 consumption rate) ([1]; 100 µM): 27 (8.5) % of control
- effect on mitochondrial respiration (in words) ([1]; Clark-type oxygen electrode, concentrations up to 100μM): slightly milder inhibitory effects on both glutamate/malate-driven respiration and succinate-driven respiration
- Potential Mechanism ([1]; mitochondrial respiration in isolated rat liver mitochondria, Clark type oxygen electrode, over tested concentrations): Inhibitor
- EC50 ([2]; 16 h incubation, mean±SD of three experiments, read-out: ARE (HepG2) EC50): 1390 ± 950 nM
- ARE (HepG2) (efficacy) ([2]; % of positive control): 62.8±13.4%
- effect on oxygen consumption rate, Seahorse (in words) [3]: inhibitory patterns similar to that of rotenone
- Activity in oxygen consumption ([3]; Seahorse XF24, HepG2 cells, 25 mM glucose, 1, 4, 16, and 64μM): Inhibitor
- ROS (HepG2) EC50 [4]: Inactive
- Complex IV % inhibition (activity call) [5]: Inactive
- Complex V % inhibition (activity call) [6]: Inactive
- inhibition effect on Complex I ([7]; at 4.0μM): 23.6%
- Complex I % inhibition ([7]; at 20μM): 38.3±1.92 at 20μM %
- p53 (HCT-116) EC50 [8]: Inactive
- LUM: mean difference in luminescence (ATP content) relative to plate controls ([9]; 0.005 µM): 0.1466
- LUM: mean difference in luminescence (ATP content) relative to plate controls ([9]; 0.01 µM): 0.1001
- LUM: mean difference in luminescence (ATP content) relative to plate controls ([9]; 0.05 µM): 0.1404
- LUM: mean difference in luminescence (ATP content) relative to plate controls ([9]; 0.1 µM): 0.3228
- LUM: mean difference in luminescence (ATP content) relative to plate controls ([9]; 0.5 µM): 1.055
- LUM: mean difference in luminescence (ATP content) relative to plate controls ([9]; 1 µM): -0.08665
- LUM: mean difference in luminescence (ATP content) relative to plate controls ([9]; 5 µM): 3.898
- LUM: mean difference in luminescence (ATP content) relative to plate controls ([9]; 10 µM): 3.595
- LUM: mean difference in luminescence (ATP content) relative to plate controls ([9]; 25 µM): 3.9673
- LUM: mean difference in luminescence (ATP content) relative to plate controls ([9]; 50 µM): 3.294
- LUM: mean difference in luminescence (ATP content) relative to plate controls ([9]; 75 µM): 3.822
- LUM: mean difference in luminescence (ATP content) relative to plate controls ([9]; 100 µM): 4.216
- effect on ATP content (in words) ([9]; 0.5–100μM, 24 h exposure): inhibited
- LEC LUM: lowest effect concentration for luminescence, a measure of nematode ATP content ([9]; C. elegans ATP, JT trend test, Bonferoni correction p<0.05): 0.25 µM
- Parkin translocation into mitochondria (in words) ([10]; 3 h): patterns similar to antimycin A and FCCP
- Parkin recruitment ([10]; HeLa cells stably expressing YFP-Parkin, treated for 2 h): Active
- EXT: mean difference in nematode size relative to plate controls ([11]; 0.005 µM): 0.5663
- EXT: mean difference in nematode size relative to plate controls ([11]; 0.01 µM): 0.679
- EXT: mean difference in nematode size relative to plate controls ([11]; 0.05 µM): 1.058
- EXT: mean difference in nematode size relative to plate controls ([11]; 0.1 µM): 0.8774
- EXT: mean difference in nematode size relative to plate controls ([11]; 0.5 µM): 1.355
- larval growth effect at 0.5μM ([11]; 0.5μM, 48 h exposure): severe larval growth arrest
- EXT: mean difference in nematode size relative to plate controls ([11]; 1 µM): 1.41
- EXT: mean difference in nematode size relative to plate controls ([11]; 5 µM): 1.888
- EXT: mean difference in nematode size relative to plate controls ([11]; 10 µM): 1.689
- EXT: mean difference in nematode size relative to plate controls ([11]; 50 µM): 0.7889
- effect on larval growth (in words) ([11]; 0.5–100μM, 48 h exposure): inhibited
- LEC EXT: lowest effect concentration for extinction, a measure of nematode size ([11]; C. elegans larval growth, JT trend test, Bonferoni correction p<0.05): 0.005 µM
- inhibitory effect at (concentration) on larval growth in the C. elegans assay ([11]; quoted in Discussion): 0.005 µM
- HepG2 (efficacy) Glucose (MMP) ([12]; 5 mM glucose, % of positive control, mean±SD of three experiments): −85.9±3.17%
- HepG2 (efficacy) Galactose (MMP) ([12]; 10 mM galactose, % of positive control, mean±SD of three experiments): −78.9±0.48%
- MMP assays efficacy (%) HepG2 ([12]; HepG2 cells, single number from one experiment): -89%
- IC50 ([12]; read-out: HepG2 IC50 Galactose (MMP), 10 mM galactose, no glucose, 1 h treatment, mean±SD of three experiments): 0.06 ± 0.02 µM
- IC50 ([12]; read-out: HepG2 IC50 Glucose (MMP), 5 mM glucose, 1 h treatment, fresh re-sourced stocks, mean±SD of three experiments): 0.04 ± 0.01 µM
- IC50 ([12]; read-out: IC50 in HepG2 cells (MMP, tier-one retest), existing Tox21 10K library stock solutions, Excel Table S1): 0.02 µM
- IC50 ([12]; read-out: MMP assays IC50 (µM) HepG2, HepG2 cells, single number from one experiment): 0.0155 µM
- IC50 ([13]; 5 mM glucose, read-out: ATP (HepG2, glucose) IC50): 10700 ± 6390 nM
- ATP (HepG2, glucose) (efficacy) ([13]; 5 mM glucose, % of positive control): −107±6.73%
- IC50 ([13]; 10 mM galactose, read-out: ATP (HepG2, galactose) IC50): 5880 ± 2330 nM
- ATP (HepG2, galactose) (efficacy) ([13]; 10 mM galactose, % of positive control): −105±4.87%
- Complex III % inhibition (activity call) [14]: Inactive
- MMP assays efficacy (%) qHTS-HepG2 [15]: -91±3%
- IC50 ([15]; read-out: MMP assays IC50 (µM), qHTS-HepG2): 0.01 µM
- Rat hepatocytes (efficacy) (MMP) ([16]; % of positive control, mean±SD of three experiments): −75.4±6.24%
- MMP assays efficacy (%) Rat Hepatocytes ([16]; rat hepatocytes, mean ± SD of three experiments): -99±26%
- IC50 ([16]; read-out: IC50 in rat primary hepatocytes (MMP, tier-one retest), existing Tox21 10K library stock solutions, 1-h treatment, Excel Table S1): 40 nM
- IC50 ([16]; read-out: Rat hepatocytes IC50 (MMP), 1 h treatment, fresh re-sourced stocks, mean±SD of three experiments): 310 ± 150 nM
- IC50 ([17]; 1 h treatment, fresh re-sourced stocks, read-out: hNSC IC50 (MMP)): 40 ± 10 nM
- hNSC (efficacy) (MMP) ([17]; % of positive control): −97.1±7.31%
- Complex II % inhibition (activity call) [18]: Inactive
